Laboratory results reported in ChEMBL document CHEMBL5096200, “A short survey of dengue protease inhibitor development in the past 6 years (2015-2020) with an emphasis on similarities between DENV and SARS-CoV-2 proteases” (Bioorg Med Chem, 2021).
Converted amounts (≈) assume the structure as drawn.

What was measured:
[1] = Antiviral activity against DENV2 infected in human Huh-7 cells assessed as log reduction of viral titre measured at 1 uM measured after 72 hrs; assay type: functional, dengue virus type 2
[2] = Permeability of the compound at pH 7.4; assay type: ADME; conditions: PAMPA, read-out: permeability
dengue virus type 2 [3] = experiment: Antiviral activity against DENV2; assay type: functional, organism-based
[4] = Antiviral activity against DENV2 infected in human K562 cells assessed as log reduction of viral titre measured at 1 uM measured after 72 hrs; assay type: functional, dengue virus type 2
dengue virus type 4 = experiment: Antiviral activity against DENV4 infected in human Huh-7 cells assessed as inhibition of viral replication measured after 72 hrs post infection by qRT-PCR analysis; assay type: functional, organism-based; conditions: Huh-7, 72 h
dengue virus type 2 [5] = experiment: Antiviral activity against DENV2 infected in human Huh-7 cells assessed as inhibition of viral replication measured after 72 hrs post infection by qRT-PCR analysis; assay type: functional, organism-based; conditions: Huh-7, 72 h
dengue virus type 2 [6] = experiment: Antiviral activity against DENV2 assessed as inhibition of viral replication; assay type: functional, organism-based
dengue virus type 1 [7] = experiment: Antiviral activity against DENV1 infected in human Huh-7 cells assessed as inhibition of viral replication measured after 72 hrs post infection by qRT-PCR analysis; assay type: functional, organism-based; conditions: Huh-7, 72 h
dengue virus type 3 = experiment: Antiviral activity against DENV3 infected in human Huh-7 cells assessed as inhibition of viral replication measured after 72 hrs post infection by qRT-PCR analysis; assay type: functional, organism-based; conditions: Huh-7, 72 h
Genome polyprotein [8] = target: T1, Genome polyprotein (dengue virus type 2, UniProt P29990); experiment: Inhibition of DENV2 NS2B-NS3 protease
T1 sequence (P29990 1346-1475 limits assumed): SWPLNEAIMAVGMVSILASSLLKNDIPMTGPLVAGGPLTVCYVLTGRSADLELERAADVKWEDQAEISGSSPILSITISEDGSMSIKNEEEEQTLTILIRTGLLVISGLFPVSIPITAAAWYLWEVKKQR
T1 sequence (P29990 1476-2093 limits assumed): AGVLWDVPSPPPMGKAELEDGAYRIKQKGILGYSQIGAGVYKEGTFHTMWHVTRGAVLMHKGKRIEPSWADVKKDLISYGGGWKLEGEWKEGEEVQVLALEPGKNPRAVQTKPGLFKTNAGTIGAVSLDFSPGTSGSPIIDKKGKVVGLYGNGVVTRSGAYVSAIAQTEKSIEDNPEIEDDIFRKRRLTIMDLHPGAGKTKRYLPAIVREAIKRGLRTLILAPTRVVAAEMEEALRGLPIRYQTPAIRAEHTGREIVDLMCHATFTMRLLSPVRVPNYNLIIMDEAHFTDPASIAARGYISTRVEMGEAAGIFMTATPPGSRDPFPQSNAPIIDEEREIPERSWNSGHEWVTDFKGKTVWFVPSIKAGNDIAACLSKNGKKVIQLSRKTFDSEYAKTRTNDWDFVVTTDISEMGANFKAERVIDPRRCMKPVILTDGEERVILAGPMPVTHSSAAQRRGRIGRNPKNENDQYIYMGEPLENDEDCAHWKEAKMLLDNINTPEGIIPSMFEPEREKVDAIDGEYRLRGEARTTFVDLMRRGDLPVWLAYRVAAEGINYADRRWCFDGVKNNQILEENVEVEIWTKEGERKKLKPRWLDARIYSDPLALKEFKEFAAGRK

Genome polyprotein [9] = target: T1, Genome polyprotein; experiment: Binding affinity to DENV2 NS2B/NS3 protease assessed as inhibition constant
[10] = Inhibition of DENV2 pro; parameters: species or system dengue virus type 2
Genome polyprotein [11] = target: T1, Genome polyprotein; experiment: Inhibition of DENV2 NS2B-NS3 protease using Boc-Gly-Arg-Arg-MCA as substrate by fluorescence assay
dengue virus type 2 [12] = experiment: Antiviral activity against Dengue virus 2 infected in african green monkey Vero cells assessed as reduction in viral titer; assay type: functional, organism-based
[13] = Inhibition of DENV2 protease infected in human HeLa cells; assay type: cell-based, dengue virus type 2; conditions: Dengue virus
Genome polyprotein [14] = target: T1, Genome polyprotein; experiment: Inhibition of DENV2 NS2B-NS3 protease using fluorophore-tagged Bz-nKRR-AMC as substrate preincubated for 30 mins followed by substrate addition measured after 90 mins by microplate reader analysis
Genome polyprotein [15] = target: T1, Genome polyprotein; experiment: Inhibition of DENV NS2B/NS3 pro
[16] = Antiviral activity against DENV2 infected in BHK-21 cells assessed as inhibition of viral replication; assay type: functional, cell-based, dengue virus type 2; conditions: Dengue virus
[17] = Cytotoxicty against BHK-21 cells assessed as reduction in cell viability; assay type: toxicity, cell-based; conditions: Mesocricetus auratus (golden hamster)
Dengue virus = experiment: Antiviral activity against Dengue virus assessed as reduction in viral titer at 50 uM preincubated for 1 hr measured after 24 hrs post infection by plaque assay relative to control; assay type: functional; parameters: scale not given: the % may be the effect or the level left; conditions: time 25 hrs
[18] = Antiviral activity against Dengue virus 2 infected in african green monkey Vero cells assessed as reduction in viral titer preincubated for 1 hour with cells followed by viral infection and measured upto 7 days by plague assay relative to control; assay type: functional, dengue virus type 2; conditions: time <= 7 day
dengue virus type 1 [19] = experiment: Antiviral activity against Dengue virus 1 infected in african green monkey Vero cells assessed as reduction in viral titer preincubated for 1 hour with cells followed by viral infection and measured upto 7 days by plague assay relative to control; assay type: functional; conditions: time <= 7 day
[20] = Antiviral activity against Dengue virus 4 infected in african green monkey Vero cells assessed as reduction in viral titer preincubated for 1 hour with cells followed by viral infection and measured upto 7 days by plague assay relative to control; assay type: functional, dengue virus type 4; conditions: time <= 7 day
[21] = Antiviral activity against Dengue virus 3 infected in african green monkey Vero cells assessed as reduction in viral titer preincubated for 1 hour with cells followed by viral infection and measured upto 7 days by plague assay relative to control; assay type: functional, dengue virus type 3; conditions: time <= 7 day
Genome polyprotein [22] = target: T1, Genome polyprotein; experiment: Inhibition of DENV-2 NS2bNS3 pro
Genome polyprotein [23] = target: T1, Genome polyprotein; experiment: Inhibition of DENV-2 NS2B/NS3 protease expressed in Escherichia coli XL1 using Boc-GRR-MCA as substrate preincubated for 10 mins followed by substrate addition and measured after 60 mins
[24] = Antiviral activity against DENV2 infected in human HepG2 cells measured after 48 hrs by plaque assay; assay type: functional, cell-based, dengue virus type 2; conditions: Dengue virus, HepG2, 48 h
Genome polyprotein [25] = target: T1, Genome polyprotein; experiment: Inhibition of DENV2 NS2B-NS3 protease using […] as substrate preincubated for 10 mins followed by substrate addition and incubated for 60 mins by fluorescence spectroscopy assay
[26] = Antiviral activity against DENV2 infected in african green monkey Vero cells assessed as reduction of viral titre by viral plaque reduction assay; assay type: functional, cell-based, dengue virus type 2; conditions: Dengue virus
[27] = Inhibition of West Nile Virus NS2B (residues 1393 to 1440 )/NS3pro (residues 1476 to 1687) protease expressed in Escherichia coli BL21 (DE3) using e Pyr- RTKR-AMC as substrate preincubated for 30 mins followed by substrate addition and incubated for 90 mins by fluorescence spectrophotometry assay
[28] = Antiviral activity against DENV-2 NGC infected in african green monkey Vero B cells assessed as reduction in virus induced cytopathic effect; assay type: functional, cell-based, dengue virus type 2; conditions: Dengue virus
[29] = Inhibition of DENV2 pro infected in human Huh-7 cells using 7-amino-4-methylcoumarin (AMC) fluorophore-linked Boc-GRR-AMC as substrate incubated for 30 mins; assay type: cell-based, dengue virus type 2; conditions: Dengue virus, Huh-7, 0.5 h
dengue virus type 2 [30] = experiment: Antiviral activity against DENV-2 infected in human Huh-7 cells assessed as reduction in viral RNA treated for 3 days by qRT-PCR analysis; assay type: functional, organism-based; conditions: Huh-7, 72 h
dengue virus type 2 [31] = experiment: Antiviral activity against DENV2 infected in human Huh-7 cells using Boc-GRR-AMC as substrate incubated for 30 mins by fluorescence spectroscopy assay; assay type: functional, organism-based; conditions: Huh-7, 0.5 h
Genome polyprotein [32] = target: T1, Genome polyprotein; experiment: Inhibition of DENV NS2B/NS3 protease transfected in human Huh-7 cells using 7-amino-4-methylcoumarin (AMC) fluorophore-linked peptide substrate Boc-GRR-AMC as substrate by fluoroscence based assay; assay type: cell-based
dengue virus type 2 [33] = experiment: Antiviral activity against DENV2 (TR1751) infected in BHK-21 cells assessed as reduction in virus titre at 1000 uM by focus forming assay relative to control; assay type: functional; parameters: scale not given: the % may be the effect or the level left
dengue virus type 2 [34] = experiment: Antiviral activity against DENV2 (TR1751) infected in BHK-21 cells assessed as reduction in virus titre at 100 uM by focus forming assay relative to control; assay type: functional; parameters: scale not given: the % may be the effect or the level left

## O=C1c2c(O)ccc([N+](=O)[O-])c2C(=O)c2c([N+](=O)[O-])ccc(O)c21
[1]
  log(activity): >1 PFU/ml
[2]
  Papp: 4.45 ×10⁻⁶ cm/s
Dengue virus type 2 [3]
  EC50: 4.2 µM
[4]
  log(activity): >1 PFU/ml

## CC(=O)O[C@H]1CC(C)(C)C(=C=C/C(C)=C/C=C/C=C/C=C(C)/C=C2C=C(/C=C/[C@@]34O[C@]3(C)C[C@@H](O)CC4(C)C)C(=O)O/2)[C@](C)(O)C1
Dengue virus type 4
  EC50: 5.84 µM
Dengue virus type 2 [5]
  EC50: 4.5 µM
Dengue virus type 2 [6]
  EC50: 4.5 µM
Dengue virus type 1 [7]
  EC50: 5.84 µM
Dengue virus type 3
  EC50: 5.84 µM

## N#C/C(=C\c1ccc(O)cc1)C(N)=O
Genome polyprotein [8]
  Ki: 35.7 µM
Genome polyprotein [9]
  Ki: 35.7 µM
[2]
  Papp: 8.4 ×10⁻⁶ cm/s

## N=C(N)NCCC[C@H](NC(=O)c1nccs1)C(=O)N[C@@H](CCCCN)C(=O)N[C@@H](C(N)=O)c1ccc(OCc2ccc(C(F)(F)F)cc2)cc1
[10]
  IC50: 0.018 µM

## CCCCC1C(C(=O)N(C)OC)C(c2ccccc2)CCN1C(=O)OC(C)(C)C (centres undefined)
Genome polyprotein [11]
  IC50: 257 µM

## O=C(Nc1nc2cc(O)c(O)cc2s1)c1ccccc1Sc1ccc(C(F)(F)F)cc1
Dengue virus type 2 [12]
  EC50: > 3 µM
[10]
  IC50: 3.6 µM

## CCCCCC(=O)N[C@H](C(=O)NCc1ccc(NC(=N)N)cc1)c1ccc(OCc2ccccc2)cc1
[13]
  EC50: 0.49 µM

## COc1ccc(S(=O)(=O)n2nc(Oc3ccc(-c4ccccc4)cc3)cc2N)cc1
Genome polyprotein [14]
  IC50: 2.9 µM

## N=C(N)NCCC[C@@H](NC1NC(=O)C(N[C@H](CCCCN)C(=O)O)NC(=O)C(N2CCC[C@@H]2C(=O)O)NC(=O)C(N[C@H](Cc2ccccc2)C(=O)O)NC(=O)C(N[C@H](CO)C(=O)O)NC(=O)C(N[C@@H](Cc2ccccc2)C(=O)O)NC(=O)C(N[C@@H](CO)C(=O)O)NC(=O)[C@H](CCCCN)NC1=O)C(=O)O (some centres undefined)
[10]
  IC50: 0.95 µM

## Cc1c(O)cccc1C(=O)NC(CSc1ccccc1)C(O)CN1CC2CCCCC2C[C@H]1C(=O)NC(C)(C)C (some centres undefined)
Dengue virus type 2 [3]
  EC50: 3.5 µM

## Cc1cc(O)c(S(=O)(=O)O)cc1Cc1cc(S(=O)(=O)O)c(O)c(Cc2cc(S(=O)(=O)O)c(O)cc2C)c1C
Genome polyprotein [15]
  IC50: 0.815 µM
[16]
  IC50: 4.99 µg/mL (≈ 8.48 µM)
[17]
  IC50: 459 µg/mL (≈ 781 µM)

## C[C@@H](CC[C@H](O)[C@](C)(O)CO)[C@@H]1CC[C@]2(C)C3=CC[C@@H]4C(C)(C)C(=O)CC[C@@]4(C)C3=CC[C@@]12C
Dengue virus
  Activity: 40%

## N#C/C(=C/c1ccc(-c2ccc(C(=O)O)cc2)s1)c1nc2cc(Cl)ccc2[nH]1
[18]
  inhibition (INH): 83%
Dengue virus type 1 [19]
  inhibition (INH): 50%
[20]
  inhibition (INH): 73%
[21]
  inhibition (INH): 75%
Genome polyprotein [22]
  IC50: 5.95 µM

## CCCCC(=O)Nc1nc(SC(=O)CCCC)c2nc[nH]c2n1
Genome polyprotein [23]
  IC50: 0.38 µM

## CCCCC1C(C(=O)OCC)C(c2ccccc2)CCN1C(=O)OC(C)(C)C (centres undefined)
[24]
  EC50: 3.2 µM
Genome polyprotein [11]
  IC50: 214 µM

## Oc1c(C(Nc2ccccc2)c2ccccn2)ccc2cccnc12 (centres undefined)
Genome polyprotein [8]
  Ki: 17 µM
Genome polyprotein [9]
  Ki: 17 µM
[2]
  Papp: 4.12 ×10⁻⁶ cm/s

## COc1ccc(C(=O)CN2C/C(=C/c3ccc([N+](=O)[O-])cc3)C(=O)/C(=C\c3ccc([N+](=O)[O-])cc3)C2)cc1
Genome polyprotein [25]
  IC50: 16.2 µM

## O=C1/C(=C\c2ccc([N+](=O)[O-])cc2)CN(CC(=O)c2ccc(F)cc2)C/C1=C/c1ccc([N+](=O)[O-])cc1
Genome polyprotein [25]
  IC50: 15.2 µM

## O=C1OC2(c3ccccc31)c1cc(I)c(O)c(I)c1OC1C(I)=C(O)C(I)=CC12 (centres undefined)
Dengue virus type 2 [3]
  EC50: 1.2 µM

## O=C(O)c1ccccc1-c1c2cc(I)c(=O)c(I)c-2oc2c(I)c(O)c(I)cc12
[26]
  EC50: 1.2 µM

## COc1ccc(S(=O)(=O)n2nc(OC(=O)c3ccccc3)cc2N)cc1
[27]
  IC50: 0.105 µM

## Cc1c(O)cccc1C(=O)N[C@@H](CSc1ccccc1)[C@H](O)CN1C[C@H]2CCCC[C@H]2C[C@H]1C(=O)NC(C)(C)C
[28]
  EC50: 3.5 µM

## COC(=O)c1[nH]c2ccc(Cl)cc2c1C(=O)c1cc(OC)c(OC)c(OC)c1
[29]
  EC50: 6.7 µM
Dengue virus type 2 [30]
  EC50: 4.6 µM
Dengue virus type 2 [31]
  EC50: 4.6 µM
Dengue virus type 2 [6]
  EC50: 4.6 µM
Genome polyprotein [32]
  EC50: 4.7 µM

## Oc1cc(O)c2c(c1)O[C@H](c1ccc(O)c(O)c1)[C@H](O)C2 [(-)-EPICATECHIN]
Dengue virus type 2 [33]
  Activity: 66.2%
Dengue virus type 2 [34]
  Activity: 77.7%

## COc1cc(O)c(C(=O)[C@@H]2[C@H](CC=C(C)C)C(C)=CC[C@H]2c2ccccc2)c(O)c1 [PANDURATIN A]
Genome polyprotein [25]
  IC50: 57.3 µM
